Results: ChEMBL document CHEMBL1201862, “PubChem BioAssay data set” (2004)
The source made the active and inactive calls.

Columns and labels:
[1] = target: Melanin-concentrating hormone receptor 1 (Homo sapiens, UniProt Q99705); experiment: Fluorescence-based counterscreen for antagonists of the G-protein coupled receptor 7 (GPR7): cell-based high throughput dose response assay to identify antagonists of the melanin-concentrating hormone receptor 1 (MCHR1).; assay type: functional
[2] = target: T1, Neuropeptides B/W receptor type 1 (Homo sapiens, UniProt P48145); experiment: Fluorescence-based dose response cell-based high throughput screening assay to identify antagonists of the G-protein coupled receptor 7 (GPR7). [Related pubchem assays: 1952 (Screening assay (GPR7 antagonists).), 1880 (Summary AID.)]; assay type: functional
T1 sequence (P48145 whole entry): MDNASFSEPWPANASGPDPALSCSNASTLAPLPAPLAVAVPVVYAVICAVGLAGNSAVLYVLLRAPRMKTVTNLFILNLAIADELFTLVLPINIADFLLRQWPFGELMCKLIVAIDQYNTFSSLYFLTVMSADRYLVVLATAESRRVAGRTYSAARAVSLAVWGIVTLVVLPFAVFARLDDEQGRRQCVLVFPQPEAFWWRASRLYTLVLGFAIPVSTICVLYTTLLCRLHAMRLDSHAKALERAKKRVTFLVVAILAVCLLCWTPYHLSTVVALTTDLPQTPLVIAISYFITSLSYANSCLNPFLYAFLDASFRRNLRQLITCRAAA

[3] = target: T2, Carboxy-terminal domain RNA polymerase II polypeptide A small phosphatase 1 (Homo sapiens, UniProt Q9GZU7); experiment: CTDSP1 inhibitors, concentration-response, biochemical, absorbance readout, ultra-high-throughput screen actives (AID 540297); assay type: functional
T2 sequence (Q9GZU7 whole entry): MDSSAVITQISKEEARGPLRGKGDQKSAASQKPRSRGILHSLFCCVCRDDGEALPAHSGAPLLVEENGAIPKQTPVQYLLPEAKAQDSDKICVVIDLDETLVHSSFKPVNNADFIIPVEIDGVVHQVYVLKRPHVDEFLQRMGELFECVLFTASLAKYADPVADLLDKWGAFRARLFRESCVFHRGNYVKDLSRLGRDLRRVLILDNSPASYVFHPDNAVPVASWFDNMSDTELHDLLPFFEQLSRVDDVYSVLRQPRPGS

[4] = target: Voltage-gated inwardly rectifying potassium channel KCNH2 (Homo sapiens, UniProt Q12809); experiment: concentration-dependent hERG rescue from blockers – cell-based, thallium flux, dose response (AID 2121); assay type: ADME
[5] = cells
[6] = NIH3T3 cell viability loss – ATP luminescence, mouse fibroblasts, counter-screen, dose response (AID 2010); assay type: functional, cell-based;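 also: cells exposed to compound for about 90 hours before reading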
[7] = Trypanosoma cruzi growth suppression in host cells – NIH3T3 host cells, beta-gal luminescence, confirmation (AID 2044); assay type: functional, cell-based;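 also: intracellular parasites grown in NIH/3T3 mouse fibroblasts as host cells; luminescent beta-galactosidase reporter signal from transgenic T. cruzi replicating inside host cells; inhibitors lower the luminescence signal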
[8] = target: Heat shock protein HSP 90-alpha (Homo sapiens, UniProt P07900); experiment: Luminescence-based dose response biochemical high throughput screening assay for inhibitors of the Heat Shock Protein 90 (HSP90). [Related pubchem assays: 1831 (Summary AID.), 1846 (Confirmation screen.), 1789 (Primary screen.)]
[9] = target: FAD-linked sulfhydryl oxidase ALR (Homo sapiens, UniProt P55789); experiment: ALR-catalysed DTT oxidation blockers – biochemical, H2O2 detection, luminescence, cherry-pick, dose response (AID 493248)
[10] = target: Photoreceptor-specific nuclear receptor (Homo sapiens, UniProt Q9Y5X4); experiment: ligands suppressing NR2E3 nuclear receptor activity – biochemical, TR-FRET, dose response (AID 463256); assay type: functional
[11] = target: Peroxisome proliferator-activated receptor gamma/Nuclear receptor corepressor 2 (Homo sapiens, UniProt P37231+Q9Y618); experiment: Counterscreen for NR2E3 inverse agonists: TR-FRET-based biochemical high throughput dose response assay to identify inverse agonists of the interaction between peroxisome proliferator-activated receptor gamma (PPARg) and nuclear receptor co-repressor 2 (NCOR2).; assay type: functional
[12] = Luminescence Cell-Based Dose Response HTS to Identify Inhibitors of 5'UTR Stem-Loop Driven Prion Protein mRNA Translation in H4 Neuroglioblastoma Cells. [Related pubchem assays: 1827 (Project Summary), 1813 (Primary HTS)]; assay type: functional
[13] = luciferase reporter signal reduction – luminescence, H4-C neuroglioblastoma cells, dose response (AID 2458); assay type: functional, cell-based;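 also: H4 neuroglioblastoma cells stably carrying a luciferase reporter gene fusion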
[14] = system: BJ; experiment: BJ-TERT-LT-ST fibroblast viability loss – cell-based, RAS-independent, luminescence, dose response (AID 1935); assay type: functional; details: Homo sapiens;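 also: BJ fibroblasts immortalized with TERT plus LT and ST oncogenes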
[15] = luciferase reporter signal suppression in cells – H4 neuroglioma cells, luminescence, dose response (AID 1990); assay type: functional, cell-based
[16] = HEK-293T viability loss after treatment – luminescence, T-cell screen hits, cytotoxicity control for TCR NF-kB inhibitor project, dose response (AID 489026); assay type: functional, cell-based;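 also: cells exposed to compound about 14 hours before the viability readout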
[17] = system: BJ; experiment: growth inhibition of engineered Ras-driven BJ cells – cell-based, alamar blue fluorescence, cherrypicked samples, dose response (AID 2631); assay type: functional; details: Homo sapiens;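 also: confirmatory dose-response assay in RAS-dependent BJ fibroblasts engineered with TERT, LT and ST, with cytotoxicity read by fluorescence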
[18] = alpha-synuclein stem-loop luciferase translation blockers – H4 neuroglioma cells, luminescence, confirmation (AID 1988); assay type: functional, cell-based
[19] = system: BJ; experiment: BJ-TERT fibroblast viability loss – cell-based, RAS-independent, luminescence, dose response (AID 1933); assay type: functional; details: Homo sapiens
[20] = cells; assay type: functional, cell-based
[21] = target: T3, Fructose-bisphosphate aldolase (Mycobacterium tuberculosis, UniProt P9WQA3); experiment: Fluorescence-based biochemical high throughput dose response assay for inhibitors of the fructose-bisphosphate aldolase (FBA) of M. tuberculosis.; assay type: functional
T3 sequence (P9WQA3 whole entry): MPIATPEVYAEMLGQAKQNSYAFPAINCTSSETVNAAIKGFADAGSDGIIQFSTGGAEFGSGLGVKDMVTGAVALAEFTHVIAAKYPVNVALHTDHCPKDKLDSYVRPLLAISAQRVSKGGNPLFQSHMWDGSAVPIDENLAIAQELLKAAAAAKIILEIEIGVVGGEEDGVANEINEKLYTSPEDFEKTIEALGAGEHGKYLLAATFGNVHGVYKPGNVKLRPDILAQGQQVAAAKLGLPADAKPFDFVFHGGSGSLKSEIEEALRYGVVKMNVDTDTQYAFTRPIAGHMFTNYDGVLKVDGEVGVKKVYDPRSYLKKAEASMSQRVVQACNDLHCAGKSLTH

[22] = alpha-synuclein stem-loop translation blockers – luminescence, H4 neuroglioblastoma cells, dose confirmation, confirmation (AID 2454); assay type: functional, cell-based;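 also: H4 neuroglioblastoma cells carrying an alpha-synuclein 5'UTR luciferase reporter; potency for inhibition of the luciferase signal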
[23] = system: BJ; experiment: cells; assay type: functional, cell-based; details: Homo sapiens
[24] = DRD fibroblast viability loss – cell-based, non-viral oncogenic, luminescence, dose response (AID 1934); assay type: functional; details: Homo sapiens
[25] = target: Prothrombin (Homo sapiens, UniProt P00734); experiment: Thrombin 1536 HTS Dose Response Confirmation. [Related pubchem assays: 1046 (Thrombin 1536 HTS; hits were confirmed in this assay)]; assay type: functional
[26] = mitochondrial function rescue without frataxin homolog – Friedreich's ataxia, plus single-dose screen, dose response (AID 1465); assay type: functional;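 also: yeast depleted of Yfh1p frataxin homolog grown on glycerol needing respiration; WST-1 tetrazolium dye reduction as measure of cellular dehydrogenase metabolic activity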
[27] = viability loss in THP-1 monocytes – THP-1 cells, cytotoxicity control for Vif-APOBEC3G degradation inhibitor project, dose response (AID 1117359); assay type: functional; details: THP-1
[28] = target: T4, Induced myeloid leukemia cell differentiation protein Mcl-1 (Homo sapiens, UniProt Q07820); experiment: blockers of MCL1 binding to BIM peptide – biochemical, fluorescence polarization, BIM-BH3 peptide, 1536-well, dose response (AID 2217)
[29] = target: Genome polyprotein (dengue virus type 2, UniProt P29990); experiment: flavivirus cap methylation enzyme inhibition – biochemical, confirmation dose response, primary screen (AID 588689); assay type: functional
[30] = target: T5, Zinc finger protein mex-5 (Caenorhabditis elegans, UniProt Q9XUB2); experiment: potency of MEX-5 RNA-binding blockers – biochemical, C. elegans, fluorescence polarization, dose response (AID 1960)
T5 sequence (Q9XUB2 whole entry): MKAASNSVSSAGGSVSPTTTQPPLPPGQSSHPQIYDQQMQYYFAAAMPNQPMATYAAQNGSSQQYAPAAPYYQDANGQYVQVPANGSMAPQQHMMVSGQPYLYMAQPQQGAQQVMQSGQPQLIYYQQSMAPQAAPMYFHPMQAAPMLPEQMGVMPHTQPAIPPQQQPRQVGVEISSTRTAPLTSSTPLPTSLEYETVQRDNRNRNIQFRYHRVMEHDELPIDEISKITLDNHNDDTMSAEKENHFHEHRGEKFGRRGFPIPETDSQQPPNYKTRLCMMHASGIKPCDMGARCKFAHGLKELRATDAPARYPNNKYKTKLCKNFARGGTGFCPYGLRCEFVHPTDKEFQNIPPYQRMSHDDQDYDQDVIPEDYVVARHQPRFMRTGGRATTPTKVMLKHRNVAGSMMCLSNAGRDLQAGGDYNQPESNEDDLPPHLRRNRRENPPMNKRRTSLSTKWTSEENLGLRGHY

[31] = target: T6, RNA-binding protein pos-1 (Caenorhabditis elegans, UniProt G5EF15); experiment: disruptors of C. elegans POS-1 RNA interaction – biochemical, fluorescence polarization, dose response (AID 1964);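 also: purified POS-1 fused to maltose binding protein made in E. coli; potency of compounds blocking POS-1 binding to fluorescent RNA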
T6 sequence (G5EF15 whole entry): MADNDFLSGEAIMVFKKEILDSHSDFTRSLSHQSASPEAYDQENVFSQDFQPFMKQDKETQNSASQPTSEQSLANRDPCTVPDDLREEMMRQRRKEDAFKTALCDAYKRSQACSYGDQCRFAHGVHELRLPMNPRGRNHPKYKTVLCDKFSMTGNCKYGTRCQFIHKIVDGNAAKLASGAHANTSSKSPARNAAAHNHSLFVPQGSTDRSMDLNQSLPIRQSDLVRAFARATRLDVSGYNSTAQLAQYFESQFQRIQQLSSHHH

[32] = system: Vero; experiment: viability of Vero cells under compound – cytotoxicity control for flavivirus capping enzyme inhibitors (AID 588742); assay type: functional; details: Chlorocebus sabaeus
[33] = target: T4, Induced myeloid leukemia cell differentiation protein Mcl-1; assay type: functional
[34] = viability loss in HepG2 hepatoma cells – cell-based, ATP luminescence, cherry-pick, activator set 2, cytotoxicity control, dose response (AID 1053143); assay type: functional
[35] = target: Bcl-2-like protein 1 (Homo sapiens, UniProt Q07817); experiment: blockers of BCLXL peptide binding – biochemical, fluorescence polarization, 1536-well, selectivity assay for MCL1 inhibitor project, dose response (AID 2218)
[36] = target: Glucose-6-phosphate 1-dehydrogenase (Homo sapiens, UniProt P11413); experiment: inhibition of Homo sapiens G6PD, dose series – biochemical, fluorescence, selectivity assay for P. falciparum G6PD inhibitor project, dose response (AID 504792); assay type: functional
[37] = HGIII-sPLA2 enzyme inhibition potency – biochemical, QFRET, IC50, dose response (AID 743457);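 also: green fluorescence rise as the enzyme cleaves BODIPY PC-A2 in liposomes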

Peroxisome proliferator-activated receptor gamma/Nuclear receptor corepressor 2, sequence (P37231 whole entry): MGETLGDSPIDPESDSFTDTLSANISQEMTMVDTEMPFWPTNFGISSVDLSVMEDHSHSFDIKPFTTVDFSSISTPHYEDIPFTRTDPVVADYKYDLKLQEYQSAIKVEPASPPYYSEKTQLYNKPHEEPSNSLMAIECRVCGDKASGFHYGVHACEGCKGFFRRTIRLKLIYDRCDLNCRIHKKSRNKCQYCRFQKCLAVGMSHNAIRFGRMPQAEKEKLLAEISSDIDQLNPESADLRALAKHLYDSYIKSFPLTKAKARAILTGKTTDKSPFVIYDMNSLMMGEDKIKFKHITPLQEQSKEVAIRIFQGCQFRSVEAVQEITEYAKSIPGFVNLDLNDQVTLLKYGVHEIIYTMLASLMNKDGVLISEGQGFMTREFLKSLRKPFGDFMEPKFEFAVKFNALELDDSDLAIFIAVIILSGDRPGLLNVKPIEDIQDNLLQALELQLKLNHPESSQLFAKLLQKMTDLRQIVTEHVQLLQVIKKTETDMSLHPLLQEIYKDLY
Peroxisome proliferator-activated receptor gamma/Nuclear receptor corepressor 2, sequence (Q9Y618 whole entry): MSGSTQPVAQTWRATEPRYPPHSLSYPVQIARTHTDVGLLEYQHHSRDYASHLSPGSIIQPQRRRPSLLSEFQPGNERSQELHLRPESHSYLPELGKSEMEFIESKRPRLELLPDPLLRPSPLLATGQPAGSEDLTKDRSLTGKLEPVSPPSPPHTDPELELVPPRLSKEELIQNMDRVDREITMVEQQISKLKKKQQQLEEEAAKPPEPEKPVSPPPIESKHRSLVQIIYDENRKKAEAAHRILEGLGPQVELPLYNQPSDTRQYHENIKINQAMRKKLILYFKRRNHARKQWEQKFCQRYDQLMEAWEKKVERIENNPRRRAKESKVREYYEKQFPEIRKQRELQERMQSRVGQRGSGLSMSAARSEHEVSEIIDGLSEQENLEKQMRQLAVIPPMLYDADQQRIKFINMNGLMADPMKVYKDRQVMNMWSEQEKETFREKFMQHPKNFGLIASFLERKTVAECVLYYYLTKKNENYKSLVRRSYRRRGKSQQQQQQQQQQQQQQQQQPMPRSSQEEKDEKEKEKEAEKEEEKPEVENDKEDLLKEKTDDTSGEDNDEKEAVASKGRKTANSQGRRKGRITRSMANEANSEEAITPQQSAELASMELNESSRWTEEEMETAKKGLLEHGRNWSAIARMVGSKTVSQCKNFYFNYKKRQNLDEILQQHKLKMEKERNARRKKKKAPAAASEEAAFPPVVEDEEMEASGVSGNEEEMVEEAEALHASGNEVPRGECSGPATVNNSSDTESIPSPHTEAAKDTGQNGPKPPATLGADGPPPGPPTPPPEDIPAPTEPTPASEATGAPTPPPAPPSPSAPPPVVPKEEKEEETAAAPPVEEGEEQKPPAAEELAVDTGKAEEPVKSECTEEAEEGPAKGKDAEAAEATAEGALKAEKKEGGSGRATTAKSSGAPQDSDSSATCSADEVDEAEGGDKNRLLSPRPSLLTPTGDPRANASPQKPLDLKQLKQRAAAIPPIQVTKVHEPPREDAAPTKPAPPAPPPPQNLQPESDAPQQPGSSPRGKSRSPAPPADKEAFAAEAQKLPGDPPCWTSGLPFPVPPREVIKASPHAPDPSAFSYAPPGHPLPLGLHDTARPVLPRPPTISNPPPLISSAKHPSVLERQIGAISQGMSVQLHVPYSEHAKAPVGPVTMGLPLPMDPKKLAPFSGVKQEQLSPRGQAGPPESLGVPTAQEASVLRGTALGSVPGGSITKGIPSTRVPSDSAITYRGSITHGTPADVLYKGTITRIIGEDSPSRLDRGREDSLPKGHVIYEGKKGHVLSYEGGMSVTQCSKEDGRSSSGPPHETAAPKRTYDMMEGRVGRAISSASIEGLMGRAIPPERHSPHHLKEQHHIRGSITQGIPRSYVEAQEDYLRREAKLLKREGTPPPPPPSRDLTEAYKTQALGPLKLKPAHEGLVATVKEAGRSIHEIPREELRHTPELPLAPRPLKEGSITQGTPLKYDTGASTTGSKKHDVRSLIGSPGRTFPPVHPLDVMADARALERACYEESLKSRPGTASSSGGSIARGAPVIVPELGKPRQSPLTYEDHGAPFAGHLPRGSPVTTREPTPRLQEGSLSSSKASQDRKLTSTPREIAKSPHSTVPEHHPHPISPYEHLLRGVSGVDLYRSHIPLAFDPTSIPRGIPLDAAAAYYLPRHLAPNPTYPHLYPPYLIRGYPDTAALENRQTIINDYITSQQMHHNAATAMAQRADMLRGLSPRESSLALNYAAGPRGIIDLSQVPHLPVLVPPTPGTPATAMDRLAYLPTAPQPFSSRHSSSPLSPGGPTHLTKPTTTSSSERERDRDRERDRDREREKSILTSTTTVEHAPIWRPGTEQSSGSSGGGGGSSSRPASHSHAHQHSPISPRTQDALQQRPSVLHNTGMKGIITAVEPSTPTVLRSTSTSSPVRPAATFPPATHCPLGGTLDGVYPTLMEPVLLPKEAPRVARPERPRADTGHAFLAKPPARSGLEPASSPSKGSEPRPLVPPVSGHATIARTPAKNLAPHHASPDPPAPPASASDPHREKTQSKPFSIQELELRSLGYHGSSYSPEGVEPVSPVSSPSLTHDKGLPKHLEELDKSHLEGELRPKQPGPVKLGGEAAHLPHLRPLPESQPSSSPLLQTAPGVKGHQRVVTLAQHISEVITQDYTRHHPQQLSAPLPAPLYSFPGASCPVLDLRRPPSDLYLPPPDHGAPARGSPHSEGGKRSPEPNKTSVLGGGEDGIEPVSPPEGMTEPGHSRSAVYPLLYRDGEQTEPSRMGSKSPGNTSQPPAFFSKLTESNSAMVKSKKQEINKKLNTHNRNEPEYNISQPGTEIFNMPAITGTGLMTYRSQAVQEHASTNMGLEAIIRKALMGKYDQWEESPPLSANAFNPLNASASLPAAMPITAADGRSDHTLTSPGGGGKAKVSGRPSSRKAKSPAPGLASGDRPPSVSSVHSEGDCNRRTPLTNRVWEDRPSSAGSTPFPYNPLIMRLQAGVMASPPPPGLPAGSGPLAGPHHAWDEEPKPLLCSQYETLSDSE
Melanin-concentrating hormone receptor 1, sequence (Q99705 whole entry): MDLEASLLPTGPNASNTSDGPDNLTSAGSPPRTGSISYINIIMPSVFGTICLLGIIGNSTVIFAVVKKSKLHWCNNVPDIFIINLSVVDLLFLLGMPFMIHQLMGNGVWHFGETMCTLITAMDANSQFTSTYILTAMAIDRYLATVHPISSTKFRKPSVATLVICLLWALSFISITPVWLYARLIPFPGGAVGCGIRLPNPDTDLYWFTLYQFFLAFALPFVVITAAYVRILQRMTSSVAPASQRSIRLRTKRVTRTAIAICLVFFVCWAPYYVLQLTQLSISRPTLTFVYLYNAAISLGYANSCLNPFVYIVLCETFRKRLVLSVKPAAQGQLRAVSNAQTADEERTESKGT
Voltage-gated inwardly rectifying potassium channel KCNH2, sequence (Q12809 whole entry): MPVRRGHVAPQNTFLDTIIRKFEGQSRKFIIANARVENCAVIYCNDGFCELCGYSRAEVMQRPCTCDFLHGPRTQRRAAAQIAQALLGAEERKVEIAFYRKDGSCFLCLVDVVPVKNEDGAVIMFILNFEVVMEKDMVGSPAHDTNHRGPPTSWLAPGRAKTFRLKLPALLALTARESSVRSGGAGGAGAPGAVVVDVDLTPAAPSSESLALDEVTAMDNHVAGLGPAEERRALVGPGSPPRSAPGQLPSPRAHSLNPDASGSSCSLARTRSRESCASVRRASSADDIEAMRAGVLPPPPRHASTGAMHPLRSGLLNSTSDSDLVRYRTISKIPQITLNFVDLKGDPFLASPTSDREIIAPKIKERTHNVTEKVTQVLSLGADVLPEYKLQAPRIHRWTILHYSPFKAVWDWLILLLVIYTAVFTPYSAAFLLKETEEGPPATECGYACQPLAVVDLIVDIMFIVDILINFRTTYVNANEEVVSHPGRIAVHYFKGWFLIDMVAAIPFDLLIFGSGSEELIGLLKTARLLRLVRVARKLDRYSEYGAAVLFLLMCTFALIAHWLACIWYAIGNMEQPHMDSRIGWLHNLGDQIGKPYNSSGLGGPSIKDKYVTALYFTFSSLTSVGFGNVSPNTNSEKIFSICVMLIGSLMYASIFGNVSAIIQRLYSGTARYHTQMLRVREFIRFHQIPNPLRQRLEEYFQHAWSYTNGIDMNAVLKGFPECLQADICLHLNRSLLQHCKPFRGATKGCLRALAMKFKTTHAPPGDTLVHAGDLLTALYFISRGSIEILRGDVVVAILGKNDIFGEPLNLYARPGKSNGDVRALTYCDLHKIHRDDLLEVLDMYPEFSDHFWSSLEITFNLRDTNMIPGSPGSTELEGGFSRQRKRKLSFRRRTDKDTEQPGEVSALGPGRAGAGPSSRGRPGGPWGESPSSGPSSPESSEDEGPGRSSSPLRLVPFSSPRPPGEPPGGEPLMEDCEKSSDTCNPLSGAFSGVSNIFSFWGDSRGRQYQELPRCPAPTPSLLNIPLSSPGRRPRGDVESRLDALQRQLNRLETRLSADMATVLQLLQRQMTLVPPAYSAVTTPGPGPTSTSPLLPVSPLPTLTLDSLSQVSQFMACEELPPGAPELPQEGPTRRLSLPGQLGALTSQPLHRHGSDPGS
Photoreceptor-specific nuclear receptor, sequence (Q9Y5X4 whole entry): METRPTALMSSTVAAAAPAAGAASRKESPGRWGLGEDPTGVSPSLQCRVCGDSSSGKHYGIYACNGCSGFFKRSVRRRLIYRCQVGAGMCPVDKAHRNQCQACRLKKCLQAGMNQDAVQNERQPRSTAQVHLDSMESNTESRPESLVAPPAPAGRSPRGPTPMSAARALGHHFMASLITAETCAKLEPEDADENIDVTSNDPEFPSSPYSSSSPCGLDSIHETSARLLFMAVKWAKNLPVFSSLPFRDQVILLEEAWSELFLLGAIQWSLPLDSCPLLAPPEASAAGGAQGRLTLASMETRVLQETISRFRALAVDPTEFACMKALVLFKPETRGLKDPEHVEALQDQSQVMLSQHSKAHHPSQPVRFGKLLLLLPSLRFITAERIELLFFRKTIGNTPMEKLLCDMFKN

## CCc1ccc(C2CC(c3ccccc3Cl)Nc3nc(N)nn32)cc1 (stereo not drawn)
[1]
  IC50: 19.6 µM (not active)
[2]
  IC50: 5.58 µM (active)

## Cc1ccccc1NC(=O)Cn1nnc(S(=O)(=O)c2ccc(C(C)(C)C)cc2)c1N
[1]
  IC50: > 43.8 µM (not active)
[2]
  IC50: > 43.8 µM (not active)
[3]
  IC50: 7.74 µM (active)

## CCn1c(O)c(N=NC2=NC(=O)CS2)c2ccccc21
[4]
  EC50: 4.83 µM (active)

## CN(C)CCCN(C(=O)COc1ccc(Cl)cc1)c1nc2cc3c(cc2s1)OCCO3
[5]
  EC50: 0.069 µM (active)
[6]
  EC50: > 60 µM (not active)
[7]
  EC50: < 0.1 µM (active)

## O=C(O)c1cccc(N2C(=O)/C(=C/c3nc4ccccc4[nH]3)SC2=S)c1
[8]
  IC50: 8.93 µM (active)
[9]
  AC50: 3.31 µM (active)

## O=C(Nc1ccc(Cl)cc1)c1ccc(-c2ccccn2)s1
[10]
  IC50: 8.84 µM (active)
[11]
  IC50: 10.9 µM (not active)

## O=C(Nc1ccc(-c2ccc3nncn3n2)cc1)c1ccc(Br)o1
[10]
  IC50: 3.62 µM (active)
[11]
  IC50: 4.01 µM (active)

## O=C(NCC(c1cccnc1)N1CCN(c2ccccc2)CC1)Oc1ccccc1 (stereo not drawn)
[5]
  EC50: 0.052 µM (active)
[6]
  EC50: > 30 µM (not active)
[7]
  EC50: < 0.1 µM (active)

## N#Cc1ccc(-c2cccs2)nc1SCc1cccnc1
[12]
  EC50: 0.156 µM (active)
[13]
  EC50: 0.841 µM (active)
[14]
  EC50: 3.66 µM (inconclusive)
[15]
  EC50: 5.46 µM (active)
[16]
  IC50: > 80 µM (inactive)
[17]
  EC50: 0.188 µM (active)
[18]
  EC50: < 0.1 µM (active)
[19]
  EC50: 7.55 µM (inconclusive)
[20]
  EC50: 1.24 µM (active)
[21]
  IC50: > 1.11 µM (active)
[22]
  EC50: > 12 µM (not active)
[23]
  EC50: 15 µM (active)
[24]
  EC50: 11.5 µM (inconclusive)

## COC(=O)c1nnc(NC(=O)c2ccc(F)cc2)[nH]1
[25]
  IC50: 0.297 µM (active)

## CCN(CC)c1ccc(NC(=S)NC(=O)c2cccs2)cc1
[4]
  EC50: 1.24 µM (active)

## CCC(=O)n1nc(-c2ccc(OC)cc2)nc1NCc1cccs1
[25]
  IC50: 1.48 µM (active)

## O=C(NNc1nc2ccc(F)cc2s1)c1cccc(F)c1
[26]
  EC50: > 100 µM (active)
[6]
  EC50: 6.48 µM (active)
[7]
  EC50: 3.84 µM (active)

## C=CC/N=c1\scc(-c2ccco2)n1/N=C/c1ccc(O)c(O)c1O
[27]
  CC50: > 40 µM (active)
[28]
  IC50: 2.94 µM (active)
[29]
  IC50: 83.8 µM (active)
[30]
  EC50: 2.68 µM (active)
[31]
  EC50: 40.6 µM (active)
[32]
  CC50: 22.8 µM (active)
[33]
  IC50: 2.81 µM (not active)
[34]
  AC50: 26 µM (active)
[35]
  IC50: > 109 µM (not active)
[36]
  IC50: > 80 µM (inactive)
[37]
  IC50: 49.6 µM (inactive)
